Experimental data as given in PubChem BioAssay AID2060888 (Molecular Pharmacology Branch, DTP, NCI, 2025).
pIC50: −log10 of the molar value.

Tested on: 695427-040-R-J1-PDC complex spheroid viability
Assay: Anticancer human tumor 695427-040-R-J1-PDC patient-derived colon adenocarcinoma cell line growth inhibition [RAS]
Conditions: for pIC50: curve of first compound; for viability, T/C: stronger effect = lower value
How it was run: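 Agents were tested in combination matrices in half-log decrements from a top concentration at or near clinical Cmax (10 microM if undetermined). Targets were multi-cell spheroids of tumour lines plus HUVEC and MSC stromal cells.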

[1] = second compound 0.00316 µM, first compound 0.0316 µM
[2] = second compound 0.00316 µM, first compound 0.1 µM
[3] = second compound 0.00316 µM, first compound 0.316 µM
[4] = second compound 0.00316 µM, first compound 1 µM
[5] = second compound 0.01 µM, first compound 0.0316 µM
[6] = second compound 0.01 µM, first compound 0.1 µM
[7] = second compound 0.01 µM, first compound 0.316 µM
[8] = second compound 0.01 µM, first compound 1 µM
[9] = second compound 0.0316 µM, first compound 0.0316 µM
[10] = second compound 0.0316 µM, first compound 0.1 µM
[11] = second compound 0.0316 µM, first compound 0.316 µM
[12] = second compound 0.0316 µM, first compound 1 µM
[13] = second compound 0.1 µM, first compound 0.0316 µM
[14] = second compound 0.1 µM, first compound 0.1 µM
[15] = second compound 0.1 µM, first compound 0.316 µM
[16] = second compound 0.1 µM, first compound 1 µM
[17] = second compound 0.316 µM, first compound 0.0316 µM
[18] = second compound 0.316 µM, first compound 0.1 µM
[19] = second compound 0.316 µM, first compound 0.316 µM
[20] = second compound 0.316 µM, first compound 1 µM
[21] = second compound 1 µM, first compound 0.0316 µM
[22] = second compound 1 µM, first compound 0.1 µM
[23] = second compound 1 µM, first compound 0.316 µM
[24] = second compound 1 µM, first compound 1 µM
[25] = second compound 0.00316 µM, first compound 3.16 µM
[26] = second compound 0.00316 µM, first compound 10 µM
[27] = second compound 0.01 µM, first compound 3.16 µM
[28] = second compound 0.01 µM, first compound 10 µM
[29] = second compound 0.0316 µM, first compound 3.16 µM
[30] = second compound 0.0316 µM, first compound 10 µM
[31] = second compound 0.1 µM, first compound 3.16 µM
[32] = second compound 0.1 µM, first compound 10 µM
[33] = second compound 0.316 µM, first compound 3.16 µM
[34] = second compound 0.316 µM, first compound 10 µM
[35] = second compound 1 µM, first compound 3.16 µM
[36] = second compound 1 µM, first compound 10 µM
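Further: viability read after seven days of drug exposure.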
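Wherever viability, T/C is given: 100% = DMSO vehicle control viability.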

CCN1CCN(Cc2ccc(Nc3ncc(F)c(-c4cc(F)c5nc(C)n(C(C)C)c5c4)n3)nc2)CC1 + C=CC(=O)N1CCN(c2nc(OCC3CCCN3C)nc3c(F)c(-c4nc(N)cc(C)c4C(F)(F)F)c(Cl)cc23)C(C)C1
pIC50 (second compound 0.00316 µM): < 6.00 | pIC50 (second compound 0.01 µM): < 6.00 | pIC50 (second compound 0.0316 µM): < 6.00 | pIC50 (second compound 0.1 µM): < 6.00 | pIC50 (second compound 0.316 µM): < 6.00 | pIC50 (second compound 1 µM): < 6.00 | viability, T/C (second compound 0.00316 µM, first compound 0.00316 µM): 93% | viability, T/C (second compound 0.00316 µM, first compound 0.01 µM): 88.4% | viability, T/C [1]: 88.5% | viability, T/C [2]: 88.8% | viability, T/C [3]: 101% | viability, T/C [4]: 103% | viability, T/C (second compound 0.01 µM, first compound 0.00316 µM): 107% | viability, T/C (second compound 0.01 µM, first compound 0.01 µM): 92.2% | viability, T/C [5]: 94.1% | viability, T/C [6]: 92.4% | viability, T/C [7]: 101% | viability, T/C [8]: 108% | viability, T/C (second compound 0.0316 µM, first compound 0.00316 µM): 106% | viability, T/C (second compound 0.0316 µM, first compound 0.01 µM): 96.3% | viability, T/C [9]: 95.3% | viability, T/C [10]: 91.6% | viability, T/C [11]: 109% | viability, T/C [12]: 105% | viability, T/C (second compound 0.1 µM, first compound 0.00316 µM): 89% | viability, T/C (second compound 0.1 µM, first compound 0.01 µM): 102% | viability, T/C [13]: 90.3% | viability, T/C [14]: 92.1% | viability, T/C [15]: 107% | viability, T/C [16]: 110% | viability, T/C (second compound 0.316 µM, first compound 0.00316 µM): 95.5% | viability, T/C (second compound 0.316 µM, first compound 0.01 µM): 94.3% | viability, T/C [17]: 96.7% | viability, T/C [18]: 94.7% | viability, T/C [19]: 101% | viability, T/C [20]: 97% | viability, T/C (second compound 1 µM, first compound 0.00316 µM): 94.8% | viability, T/C (second compound 1 µM, first compound 0.01 µM): 85.6% | viability, T/C [21]: 93.7% | viability, T/C [22]: 96.6% | viability, T/C [23]: 99% | viability, T/C [24]: 94.8%

C[C@@H](NC(=O)c1ncnc(N)c1Cl)c1ncc(C(=O)Nc2cc(C(F)(F)F)c(Cl)cn2)s1 + C=CC(=O)N1CCN(c2nc(OCC3CCCN3C)nc3c(F)c(-c4nc(N)cc(C)c4C(F)(F)F)c(Cl)cc23)C(C)C1
pIC50 (second compound 0.00316 µM): < 5.00 | pIC50 (second compound 0.01 µM): < 5.00 | pIC50 (second compound 0.0316 µM): < 5.00 | pIC50 (second compound 0.1 µM): < 5.00 | pIC50 (second compound 0.316 µM): < 5.00 | pIC50 (second compound 1 µM): < 5.00 | viability, T/C [1]: 108% | viability, T/C [2]: 109% | viability, T/C [3]: 111% | viability, T/C [4]: 105% | viability, T/C [25]: 99.7% | viability, T/C [26]: 75.2% | viability, T/C [5]: 121% | viability, T/C [6]: 109% | viability, T/C [7]: 114% | viability, T/C [8]: 103% | viability, T/C [27]: 96.2% | viability, T/C [28]: 75.9% | viability, T/C [9]: 107% | viability, T/C [10]: 99.8% | viability, T/C [11]: 104% | viability, T/C [12]: 101% | viability, T/C [29]: 94.4% | viability, T/C [30]: 75.9% | viability, T/C [13]: 113% | viability, T/C [14]: 105% | viability, T/C [15]: 99.8% | viability, T/C [16]: 101% | viability, T/C [31]: 98.4% | viability, T/C [32]: 73.1% | viability, T/C [17]: 110% | viability, T/C [18]: 105% | viability, T/C [19]: 108% | viability, T/C [20]: 105% | viability, T/C [33]: 103% | viability, T/C [34]: 76.6% | viability, T/C [21]: 108% | viability, T/C [22]: 94.4% | viability, T/C [23]: 103% | viability, T/C [24]: 95.5% | viability, T/C [35]: 92.6% | viability, T/C [36]: 72.9%

Cc1nc(N2CCC3(CC2)COC(C)C3N)c(CO)nc1Sc1ccnc(N)c1Cl (stereo unspecified) + C=CC(=O)N1CCN(c2nc(OCC3CCCN3C)nc3c(F)c(-c4nc(N)cc(C)c4C(F)(F)F)c(Cl)cc23)C(C)C1
pIC50 (second compound 0.00316 µM): < 5.00 | pIC50 (second compound 0.01 µM): < 5.00 | pIC50 (second compound 0.0316 µM): < 5.00 | pIC50 (second compound 0.1 µM): < 5.00 | pIC50 (second compound 0.316 µM): < 5.00 | pIC50 (second compound 1 µM): 5.01 | viability, T/C [1]: 87% | viability, T/C [2]: 80.8% | viability, T/C [3]: 70.6% | viability, T/C [4]: 71% | viability, T/C [25]: 64.5% | viability, T/C [26]: 59.6% | viability, T/C [5]: 91.6% | viability, T/C [6]: 78.9% | viability, T/C [7]: 71.9% | viability, T/C [8]: 68.7% | viability, T/C [27]: 64.5% | viability, T/C [28]: 51.9% | viability, T/C [9]: 88.8% | viability, T/C [10]: 79% | viability, T/C [11]: 71.8% | viability, T/C [12]: 67.6% | viability, T/C [29]: 63% | viability, T/C [30]: 54.9% | viability, T/C [13]: 85.1% | viability, T/C [14]: 78.7% | viability, T/C [15]: 78.6% | viability, T/C [16]: 67.5% | viability, T/C [31]: 65.2% | viability, T/C [32]: 57.7% | viability, T/C [17]: 81.1% | viability, T/C [18]: 81.4% | viability, T/C [19]: 75.4% | viability, T/C [20]: 68.6% | viability, T/C [33]: 65.3% | viability, T/C [34]: 55.4% | viability, T/C [21]: 86.8% | viability, T/C [22]: 80.3% | viability, T/C [23]: 68.6% | viability, T/C [24]: 59.9% | viability, T/C [35]: 60.5% | viability, T/C [36]: 47.5%
